The values below come from US9150512B2, “Tricyclic lactam derivatives as 11-beta hydroxysteroid dehydrogenase inhibitors” (Janssen Pharmaceutica NV, priority 2004, dated 2015).

One assay concerns the target T1, 11b-HSD1 (Mus musculus, UniProt P50172).
T1 construct: endogenous in cells; host or cells: 3T3-L1 (ATCC-CL-173), differentiated into adipocytes
In words: Cellular assay, 11b-HSD1 activity in differentiated 3T3-L1 cells. The class given is cell-based. The conditions noted are these: 4 hour pre-incubation, pIC50 scored, read-out: [C2] HSD1 cellular 3T3-L1 Score. As for the experimental part: The effects on 11b-HSD1 activity was measured in differentiated 3T3-L1 cells and rat hepatocytes.
Mouse fibroblast 3T3-L1 cells (ATCC-CL-173) were seeded at a density of 16500 cells/ml in 12 well plates and grown for 7 days in DMEM medium (supplemented with 10% heat inactivated foetal calf serum, 2 mM glutamine and 25 mg gentamycin) at 37° C. in a humidified 5% CO2 atmosphere. Medium was refreshed twice a week. Fibroblasts were differentiated into adipocytes at 37° C. in a 5% CO2 humidified atmosphere in growth medium containing 2 μg/ml insulin, 55 μg/ml IBMX and 39.2 μg/ml dexamethasone.
Primary hepatocytes from male rats were seeded on normal Falcon 12 well plates at a density of 250000 cells/well and incubated for 16 hours at 37° C. in a 5% CO2 humidified atmosphere in DMEM-HAM's F12 medium containing 5% Nu-serum, 100 U/ml penicillin, 100 μg/ml streptomycin, 0.25 μg/ml amphotericin B, 50 μg/ml gentamycin sulfate, 5 μg/ml insulin and 392 ng/ml dexamethasone. Following a 4 hour pre-incubation with test compound, 0.5 μCi ^3H-cortisone or dehydrocorticosterone, was added to the 3T3-L1 cultures. One hour later, the medium was extracted on Extrelut^3-columns with 15 ml diethyl ether and the extract was analysed by HPLC as described above. The effects of JNJ-compounds on rat hepatocyte HSD1 activity was measured after an incubation period of 90 minutes with 0.5 μCi^3H-dehydrocorticosterone. Corticosterone formation was analysed by HPLC.
(§1) As for the enzymatic assays, the compounds to be tested were taken from a stock solution and tested at a final concentration ranging from −10^−5M to 3·10^−9M. From the thus obtained dose response curves, the pIC50 value was calculated and scored as follows; Score 1=pIC50 value<5, Score 2=pIC50 value in the range of 5 to 6, Score 3=pIC50 value>6. (in this table NT stands for Not Tested).

The next assay deals with hHSD1 (Homo sapiens, UniProt P28845). As to the kind of experiment: Enzymatic assay, 11b-HSD1 reductase activity (conversion of cortisone into cortisol), recombinant protein. The class given is biochemical. The settings on record: 2 μM cortisone, 180 μM NADPH, pH 7.2, pIC50 scored, read-out: [C1] hHSD1 reductase Score. As for the experimental part:
The effects of compounds on 11b-HSD1 dependent conversion of cortisone into cortisol (reductase activity) was studied in a reaction mixture containing 30 mM Tris-HCl buffer pH 7.2, 180 μM NADPH, 1 mM EDTA, 2 μM cortisone, 1 μl drug and/or solvent and 11 μg recombinant protein in a final volume of 100 μl.
All incubations were performed for 45 min at 37 C in a water bath. The reaction was stopped by adding 100 μl acetonitrile containing 20 μg corticosterone as internal standard. After centrifugation, the product formation was analysed in the supernatant by HPLC on a Hypersyl BDS-C18 column using 0.05 mM ammonium acetate/methanol (50/50) as solvent. In all of the aforementioned assays, the drugs to be tested were taken from a stock solution and tested at a final concentration ranging from −10^−5M to 3·10^−9M. From the thus obtained dose response curves, the pIC50 value was calculated and scored as follows; Score 1=pIC50 value<5, Score 2=pIC50 value in the range of 5 to 6, Score 3=pIC50 value>6. (in this table NT stands for Not Tested).

A further assay has as its target T2, 11b-HSD2 (Homo sapiens, UniProt P80365).
T2 construct: endogenous in cells; host or cells: HepG2 (ATCC HB-8065)
T2 sequence (P80365 1-405): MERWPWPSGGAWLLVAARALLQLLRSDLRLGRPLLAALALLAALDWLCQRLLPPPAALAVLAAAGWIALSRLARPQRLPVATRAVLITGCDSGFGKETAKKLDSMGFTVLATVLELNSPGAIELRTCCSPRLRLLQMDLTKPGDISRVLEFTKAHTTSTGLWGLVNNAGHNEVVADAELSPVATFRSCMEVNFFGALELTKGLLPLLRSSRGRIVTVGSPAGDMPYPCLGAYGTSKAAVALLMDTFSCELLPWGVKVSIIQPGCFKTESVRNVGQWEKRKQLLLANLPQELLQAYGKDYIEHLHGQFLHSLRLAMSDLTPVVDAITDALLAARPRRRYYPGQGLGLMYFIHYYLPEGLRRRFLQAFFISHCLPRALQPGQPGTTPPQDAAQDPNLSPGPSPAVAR
In words: Cellular assay, 11b-HSD2 activity in HepG2 cells. The class given is cell-based. The conditions noted are these: 4 hour pre-incubation, pIC50 scored, read-out: [C2] HSD2 cellular HepG2 Score. As for the experimental part:
The effects on 11b-HSD2 activity was studied in HepG2 and LCC-PK1-cells HepG2-cells (ATCC HB-8065) were seeded in 12 well plates at a density of 100,000 cells/ml and grown at 37° C. in a humidified 5% CO2 atmosphere in MEM-Rega-3 medium supplemented with 10% heat inactivated foetal calf serum, 2 mM L-glutamine and sodium bicarbonate). Medium was refreshed twice a week.
Following a 4 hour pre-incubation with test compound, 0.5 μCi ^3H-cortisol or corticosterone, was added to the cultures. One hour later, the medium was extracted on Extrelut^3-columns with 15 ml diethyl ether and the extract was analysed by HPLC as described above.
as §1

T1 sequence (P50172 whole entry): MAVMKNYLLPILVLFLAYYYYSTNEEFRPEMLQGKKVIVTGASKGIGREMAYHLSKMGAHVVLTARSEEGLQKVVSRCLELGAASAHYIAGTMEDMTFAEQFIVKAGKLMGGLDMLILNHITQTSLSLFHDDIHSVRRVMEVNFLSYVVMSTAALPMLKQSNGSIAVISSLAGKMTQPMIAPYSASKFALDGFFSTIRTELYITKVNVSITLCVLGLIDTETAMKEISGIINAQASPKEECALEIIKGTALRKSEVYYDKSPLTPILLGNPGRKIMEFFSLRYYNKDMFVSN
Sequence of hHSD1 (P28845 whole entry): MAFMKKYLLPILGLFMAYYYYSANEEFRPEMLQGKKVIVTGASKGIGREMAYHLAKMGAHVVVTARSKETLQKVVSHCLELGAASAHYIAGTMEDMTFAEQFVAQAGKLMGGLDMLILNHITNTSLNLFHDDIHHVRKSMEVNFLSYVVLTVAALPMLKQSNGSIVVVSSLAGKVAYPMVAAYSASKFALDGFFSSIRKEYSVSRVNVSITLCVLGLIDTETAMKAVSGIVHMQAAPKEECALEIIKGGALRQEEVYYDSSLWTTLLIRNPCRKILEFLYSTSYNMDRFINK

On to `O=C1[C@@H]2c3ccccc3CC[C@@H]2CN1C1C2CC3CC(C2)CC1C3` (stereo partly shown) [Compound 1], for which the IC50 at 11b-HSD1 and on hHSD1 was 1000 to 10000 nM in each case.

For the compound `O=C1C2Cc3ccccc3CC2CN1C1C2CC3CC(C2)CC1C3` (stereo not shown) [Compound 2], the figures for the IC50 at 11b-HSD1, at hHSD1 and on 11b-HSD2 were below 1000 nM, below 1000 nM and 1000 to 10000 nM, respectively.

As to `O=C1[C@H]2CCc3ccccc3[C@@H]2CN1C1C2CC3CC(C2)CC1C3` (stereo partly shown) [Compound 3], the IC50 on 11b-HSD1, at hHSD1 and on 11b-HSD2 was below 1000 nM each time.

With `O=C1[C@H]2Cc3ccccc3CN2CN1C1C2CC3CC(C2)CC1C3` (stereo partly shown) [Compound 4], the IC50 is below 1000 nM at 11b-HSD1, above 10000 nM on hHSD1 and above 10000 nM on 11b-HSD2.

On to `O=C1N(C2C3CC4CC(C3)CC2C4)C[C@H]2Cc3ccccc3CN12` (stereo partly shown) [Compound 5], for which the IC50 on 11b-HSD1 is below 1000 nM; on hHSD1 it was 1000 to 10000 nM; on 11b-HSD2, 1000 to 10000 nM.

`O=C1N2CCc3ccccc3C2CN1C1C2CC3CC(C2)CC1C3` (stereo not shown) [Compound 6]: the IC50 at 11b-HSD1, at hHSD1 and at 11b-HSD2 was below 1000 nM each time.

With `O=C1N2CCc3ccc(Br)cc3C2CN1C1C2CC3CC(C2)CC1C3` (stereo not shown) [Compound 7], the IC50 on 11b-HSD1 and on hHSD1 was below 1000 nM in each case.

Turning to `O=C1[C@@H]2CCc3ccccc3[C@@H]2CN1C1C2CC3CC(C2)CC1C3` (stereo partly shown) [Compound 8], the IC50 at 11b-HSD1 was below 1000 nM; at hHSD1, 1000 to 10000 nM; at 11b-HSD2, 1000 to 10000 nM.

As for `COc1cccc2c1CC1CN(C3C4CC5CC(C4)CC3C5)C(=O)C1C2` (stereo not shown) [Compound 9], the IC50 is below 1000 nM on 11b-HSD1, 1000 to 10000 nM at hHSD1 and 1000 to 10000 nM at 11b-HSD2.

Take `COc1ccc2c(c1)CC1C(=O)N(C3C4CC5CC(C4)CC3C5)CC1C2` (stereo not shown) [Compound 10]: the IC50 at 11b-HSD1 was below 1000 nM; on hHSD1, below 1000 nM; on 11b-HSD2, above 10000 nM.

Take `O=C1N(C2C3CC4CC(C3)CC2C4)C[C@@H]2Cc3ccccc3CN12` (stereo partly shown) [Compound 11]: the IC50 at 11b-HSD1 is below 1000 nM.

Take `O=C1[C@@H]2Cc3ccccc3CN2CN1C1C2CC3CC(C2)CC1C3` (stereo partly shown) [Compound 12]: at 11b-HSD1, the IC50 lay in the range of 1000 to 10000 nM.

In the case of `O=C1N(C2C3CC4CC(C3)CC2C4)CC2CCc3ccccc3N12` (stereo not shown) [Compound 13], the IC50 at 11b-HSD1, on hHSD1 and at 11b-HSD2 was above 10000 nM in each case.

Consider `O=C1N(CC23CC4CC(CC(C4)C2)C3)CC2c3ccccc3CCN12` (stereo not shown) [Compound 14], for which the IC50 at 11b-HSD1 was below 1000 nM; on hHSD1, below 1000 nM; at 11b-HSD2, 1000 to 10000 nM.

Take `O=C1[C@H]2CCc3ccccc3[C@@H]2CN1CC12CC3CC(CC(C3)C1)C2` [Compound 15]: the IC50 on 11b-HSD1 was below 1000 nM; on hHSD1, below 1000 nM; at 11b-HSD2, 1000 to 10000 nM.

With `O=C1[C@@H]2CCc3ccccc3[C@@H]2CN1CC12CC3CC(CC(C3)C1)C2` [Compound 16], the IC50 on 11b-HSD1 is below 1000 nM; at hHSD1 it was below 1000 nM; on 11b-HSD2, 1000 to 10000 nM.

Turning to `O=C1[C@H]2CCc3ccccc3[C@@H]2CN1C12CC3CC(CC(C3)C1)C2` [Compound 17], the IC50 at 11b-HSD1, at hHSD1 and at 11b-HSD2 was below 1000 nM each time.

Regarding `O=C1[C@H]2Cc3ccsc3C[C@@H]2CN1C1C2CC3CC(C2)CC1C3` (stereo partly shown) [Compound 18], the IC50 was below 1000 nM on 11b-HSD1, below 1000 nM on hHSD1 and 1000 to 10000 nM at 11b-HSD2.

With `O=C1[C@@H]2CCc3ccccc3[C@H]2CN1Cc1ccccc1` [Compound 19], the IC50 was below 1000 nM at 11b-HSD1 and above 10000 nM at hHSD1.

Turning to `O=C1[C@@H]2CCc3ccccc3[C@@H]2CN1Cc1ccccc1` [Compound 20], the IC50 on 11b-HSD1 is below 1000 nM; on hHSD1, 1000 to 10000 nM.

For the compound `O=C1C2=Cc3cccnc3CC2CN1C1C2CC3CC(C2)CC1C3` (stereo not shown) [Compound 21], the IC50 at 11b-HSD1 is below 1000 nM; on hHSD1 it was above 10000 nM.

For the compound `O=C1C2=Cc3cnccc3CC2CN1C1C2CC3CC(C2)CC1C3` (stereo not shown) [Compound 22], the IC50 at 11b-HSD1 was below 1000 nM; on hHSD1, 1000 to 10000 nM.

Regarding `O=C1N2CCc3c(Br)cccc3C2CN1C1C2CC3CC(C2)CC1C3` (stereo not shown) [Compound 23], the IC50 on 11b-HSD1, at hHSD1 and on 11b-HSD2 was below 1000 nM throughout.

Take `O=C1[C@@H]2Cc3ccccc3C[C@@H]2CN1[C@@H]1[C@@H]2CC3C[C@H]1C[C@](O)(C3)C2` [Compound 26]: the IC50 on 11b-HSD1 was 1000 to 10000 nM; on hHSD1, 1000 to 10000 nM; on 11b-HSD2, above 10000 nM.

Take `O=C1[C@H]2Cc3ccccc3C[C@H]2CN1[C@H]1[C@@H]2CC3C[C@H]1C[C@](O)(C3)C2` [Compound 27]: the IC50 at 11b-HSD1 was below 1000 nM; on hHSD1, below 1000 nM; at 11b-HSD2 it was 1000 to 10000 nM.

Consider `O=C1[C@@H]2Cc3cccnc3C[C@@H]2CN1[C@@H]1[C@@H]2CC3C[C@H]1C[C@](O)(C3)C2` [Compound 28], for which the IC50 on 11b-HSD1, at hHSD1 and at 11b-HSD2 was above 10000 nM throughout.

On to `O=C1[C@H]2Cc3cnccc3C[C@H]2CN1[C@@H]1[C@@H]2CC3C[C@H]1C[C@](O)(C3)C2` [Compound 29], for which the IC50 on 11b-HSD1, at hHSD1 and at 11b-HSD2 was above 10000 nM in each case.

For `O=C1C2=Cc3cnccc3CC2CN1[C@H]1[C@@H]2CC3C[C@H]1C[C@](O)(C3)C2` (stereo partly shown) [Compound 30], the IC50 at 11b-HSD1 was 1000 to 10000 nM; on hHSD1, above 10000 nM; on 11b-HSD2 it was above 10000 nM.

As for `O=C1[C@@H]2CCc3ccccc3[C@H]2CN1[C@H]1[C@@H]2CC3C[C@H]1C[C@](O)(C3)C2` [Compound 31], the IC50 on 11b-HSD1, at hHSD1 and on 11b-HSD2 was below 1000 nM throughout.

For `O=C1[C@@H]2CCc3ccccc3[C@H]2CN1[C@H]1[C@@H]2CC3C[C@H]1C[C@](F)(C3)C2` [Compound 32], the IC50 at 11b-HSD1, on hHSD1 and at 11b-HSD2 was below 1000 nM in each case.

For the compound `O=C1[C@@H]2CCc3ccccc3[C@@H]2CN1[C@H]1[C@@H]2CC3C[C@H]1C[C@](O)(C3)C2` [Compound 33], the IC50 at 11b-HSD1, on hHSD1 and on 11b-HSD2 was below 1000 nM each time.

Turning to `O=C1[C@H]2Cc3cnccc3C[C@H]2CN1[C@H]1[C@@H]2CC3C[C@H]1C[C@](O)(C3)C2` [Compound 34], the IC50 on 11b-HSD1 and on hHSD1 was 1000 to 10000 nM throughout.
